The values that follow come from PMC8131206 (Nature biomedical engineering, 2021).

The test system of series [1] is M. tuberculosis H37Rv (virulent). The settings on record: 96 h.
The subject of series [2] is M. smegmatis Mc^2 155. The settings on record: Mc^2 155, 48 h.
Series [3] relates to S. aureus (MR) USA300. The settings on record: USA300, 24 h.
Series [4] concerns S. aureus (MS) NRS72. The note with it: MS) NRS72, 24 h.
Series [5] deals with H. influenzae TD-4. The note with it: TD-4, 24 h.
Series [6] deals with Mtb. It is filed as cell-based, Mycobacterium tuberculosis.
Series [7] deals with the molecule itself. In words: negative-stain TEM + circular dichroism. Background: Circular dichroism is the unequal absorption of left and right circularly polarised light.

Where no end group is shown, it is not given here.

Consider KRWHWWRRHWVVW-NH2 [MAD1], for which the MIC in series [1] was 5 µM; in series [2], 5(5) µM; in series [3], >80 (20) µM; in series [4] it was >80 (20) µM; in series [5] it was 80 (20) µM.
`COc1c(N2C[C@@H]3CCCN[C@@H]3C2)c(F)cc2c(=O)c(C(=O)O)cn(C3CC3)c12` [moxifloxacin]: the “Combinatorial effect with MAD1 (FIC)” value in series [6] was “synergizes”.
With KRWHWWRRHWVVW-NH2 [myco-membrane associated disruption 1 (MAD1) peptide], in series [7], the binding result is “binds”.
